US8273769B2, “Phenoxy acetic acid derivatives” (Merck Serono SA, priority 2009, dated 2012)

Tests used:
[1] = system: OVA-induced lung eosinophilia in mice; assay: OVA-induced lung eosinophilia in mice; assay type: in vivo, BALB/c mice; conditions: BAL fluid, dose 1 mg/kg
Experimental: BALB/c mice (6-8 weeks old) were immunized with ovalbumin (10 μg i.p) on day 0 and 7. In order to elicit a local inflammatory response in the lung, mice were challenged between day's 15-17 with a nebulised solution of ovalbumin (10 μg/ml; De Vilibiss Ultraneb 2000, once daily for 30 min during the 3 days). On each separate day between 15 and 17 each animal received via oral gavage the test compound, at t−1 h and t+7 h with respect to OVA exposure at t=0 h. Eight hours after the final OVA challenge, bronchoalveolar lavage (BAL) was then carried out. Total cell numbers in the BAL fluid samples were measured using a haemocytometer. Cytospin smears of the BAL fluid samples were prepared by centrifugation at 1200 rpm for 2 min at room temperature and stained using a DiffQuik stain system (Dade Behring) for differential cell counts. […]

[2] = target: T1, CRTH2 (Homo sapiens, UniProt Q9Y5Y4); assay: [35S]GTPγS binding assay (CHO-CRTH2 cell membranes); assay type: biochemical; design: expressed in transfected cells; host or cells: CHO-CRTH2 cells; conditions: antagonist mode, fixed concentration of PGD2 (EC80)
T1 sequence (Q9Y5Y4 1-395): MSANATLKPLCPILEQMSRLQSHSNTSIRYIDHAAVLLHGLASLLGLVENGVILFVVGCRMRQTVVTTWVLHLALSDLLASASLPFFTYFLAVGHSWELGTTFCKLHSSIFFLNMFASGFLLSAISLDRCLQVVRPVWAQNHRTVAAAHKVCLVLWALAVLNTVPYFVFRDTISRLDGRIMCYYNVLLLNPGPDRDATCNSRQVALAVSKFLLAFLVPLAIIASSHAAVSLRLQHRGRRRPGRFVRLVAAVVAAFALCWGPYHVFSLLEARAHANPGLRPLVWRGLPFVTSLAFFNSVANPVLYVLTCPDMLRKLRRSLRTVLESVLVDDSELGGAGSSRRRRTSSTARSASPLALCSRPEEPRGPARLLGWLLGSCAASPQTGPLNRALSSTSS
Experimental: Adherent CHO cells expressing hCRTH2 (Euroscreen, Belgium) were cultured in 225 cm^2 cell culture flasks (Corning, USA) in 30 ml of medium. After two rinses of phosphate buffered saline (PBS), cells were harvested in 10 ml of PBS containing 1 mM EDTA, centrifuged at 500×g for 5 min at 4° C. and frozen at −80° C. The pellet was re-suspended in 50 mM Tris-HCl, pH 7.4, 2 mM EDTA, 250 mM Sucrose, containing protease inhibitor cocktail tablets, (Complete EDTA-free, Roche, Germany) and incubated 30 min at 4° C. Cells were disrupted by nitrogen cavitation (Parr Instruments, USA) at 4° C. (800 p.s.i. for 30 min), and centrifuged at 500×g for 10 min at 4° C. Pellet containing nuclei and cellular debris was discarded and supernatant was centrifuged 60 min at 4° C. at 45000×g. Membrane pellet was re-suspended in storage buffer (10 mM HEPES/KOH pH 7.4, 1 mM EDTA, 250 mM sucrose, protease inhibitor cocktail tablets) using Dounce homogenization and frozen in liquid nitrogen, and stored at −80° C.
The [^35S]GTPγS assay measures the increase in guanine nucleotide exchange at G-proteins in cell membranes, resulting from agonist (PGD2) binding to CRTH2. This process can be monitored in vitro by incubating cell membranes containing G-proteins and CRTH2 with GDP and [^35S]GTPγS, a radiolabeled, hydrolysis-resistant analogue of GTP (see, Harrison et al., Life Sciences 74, 489-508, 2003). The addition of a Compounds of Formula (I) results in binding to CRTH2 and thus in an inhibition of agonist binding, which can be monitored as inhibition of the stimulation of GTP/GDP exchange.
Briefly, Compounds of Formula (I) are incubated in 96-well scintillating white polystyrene plates (Perkin Elmer, USA) in a final volume of 200 μl containing 20 mM HEPES/KOH pH 7.4, 3 mM MgCl2, 10 μg/ml Saponin, 5 μM GDP, 75 mM NaCl and 2% of dimethylsulphoxide (DMSO). Reaction is triggered by the addition of 5-10 μg of CHO-CRTH2 cell membranes and 0.15 nM [^35S]GTPγS. After 60 min incubation at 30° C., reaction is stopped by centrifugation at 700×g, at 4° C. for 10 minutes and supernatant is removed. The radioactivity coming from the [^35S]GTPγS bound on centrifuged cell membranes is recorded using a 1450 Micro-beta scintillation counter. For IC50 determination, increasing concentrations of compounds are incubated in presence of a fixed concentration of PGD2 (EC80). For EC50 measurements, compounds are incubated without addition of PGD2. Basal [^35S]GTPγS activity is determined without addition of any ligands or compounds. 100% [^35S]GTPγS activity is measured by the addition of 1 μM of PGD2.

[3] = target: T1, CRTH2; assay: Radioligand binding Scintillation Proximity Assay ([3H]PGD2, hCRTH2-CHO cell membranes); design: host or cells: CHO cells; conditions: 1.5 nM [3H]PGD2, hCRTH2-CHO cell membranes, SPA
How it was run: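 SPA competition binding at room temperature, 90 min with agitation: 1.5 nM [3H]PGD2, 10-50 μg/ml hCRTH2-CHO membrane protein, WGA SPA beads, HEPES pH 7.4 with 10 mM MnCl2, 1% DMSO. Non-specific binding defined with 10 μM PGD2; scintillation counting.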

[4] = system: eosinophils in human whole blood; assay: PGD2-induced eosinophil cell shape assay in human whole blood; assay type: cell-based; conditions: 10 nM PGD2 final, flow cytometry
Experimental: The Compounds of Formula (I) were diluted in dimethylsulphoxide so that the total volume of dimethylsulfoxide was kept constant at 2% dimethylsulphoxide (Me2SO). Serial dilutions of 200 μM to 0.09 μM were prepared. Samples of 90 μl of human blood from healthy volunteers (Centre de Transfusion Sanguine de Genève) were pre-incubated in polypropylene Falcon tubes (BD 352063) for 20 minutes in a water bath at 37° C. with 10 μl of diluted compounds. For CRTH2 activation, 100 μl PGD2 (Cayman 12010) at 20 nM was added (10 nM final) to each tube and cells were maintained at 37° C. For negative control cells were treated with PBS. After 10 minutes, cell activation was stopped with 120 μl Formaldehyde 10% (4% final, Fluka 41650) and cells were rested for 10 minutes at room temperature. Fixed cells were transferred into polypropylene tubes and then treated for 1 hour in a water bath at 37° C. with 2 ml of Triton-Surfact-Amps X-100 (Pierce 28314) at 0.166% (0.13% Triton final). After several washes with PBS (red cells lysed progressively during washes, two washes are necessary), cells were analyzed by flow cytometry on a FACSCalibur. In one embodiment, the compounds of Formula (I) of the present invention are capable of blocking the cell shape change of eosinophils induced by PGD2 in Whole Blood.

[5] = target: T1, CRTH2; assay: Cellular Dielectric Spectroscopy (CHO-CRTH2 cells); assay type: cell-based; design: expressed in transfected cells; host or cells: CHO-CRTH2 cells; conditions: for IC50: antagonist mode, fixed concentration of PGD2 (EC80); for EC50 / Emax: partial agonists, agonist activity without PGD2
Experimental: Cellular Dielectric Spectroscopy (CDS) is a label-free technology based on the measurement of complex impedance changes (delta Z or dZ). Impedance (Z) is related to the ratio of voltage to current as described by Ohm's law (Z=V/I). In order to measure the changes in impedance that occur in response to receptor stimulation, mammalian cells are seeded onto a custom 96-well microliter plate that contains electrodes at the bottom of each well. Key contributors to the impedance measurements are changes in cell-substrate adherence, changes in cell shape and volume, and changes in cell-cell interactions. These factors individually or collectively affect the flow of current, influencing the magnitude and characteristics of the signal measured. G-protein coupled receptors ligand-induced activity can be measured using this technology and specific G protein coupling can be identified. Activities of reference agonist and antagonist molecules of CRTH2 have been measured using this assay and similar results were obtained compared to different functional assays.
CHO-CRTH2 cells are cultured in HAM's F12 (Lonza, Switzerland) supplemented with 10% foetal calf serum (PAA, Australia) and 400 μg/ml Geneticin. 100000 cells/well are seeded in standard 96W Microplates (MDS Analytical Technologies) and incubated at 37° C. in 5% CO2 for 24 hours. Cells are washed twice with 135 μl of cell key buffer (Hank's Balanced Salt Solution 1× (HBSS) (Invitrogen) supplemented with 10 mM HEPES pH 7.4 in presence of 1% DMSO). For EC50 determination. 15 μl of increasing concentration of Compounds of Formula (I) diluted in cell key buffer are added to the cells and agonist activity is then recorded for 25 minutes. […] Results are expressed as the amplitude between the highest and the lowest signal produced (max-min). Basal and maximum activities are measured, respectively in absence or presence of PGD2 (EC80).

SMILES	IC50 [3]	IC50 [4]	also measured
C[C@@H]1C[C@H]2[C@@H]3CCC4=CC(=O)C=C[C@]4(C)[C@@]3(F)[C@@H](O)C[C@]2(C)[C@@]1(O)C(=O)CO [Dexamethasone]			% inhibition eosinophils (mean ± s.e.m.) [1]: 90 ± 10%; % inhibition total cells (mean ± s.e.m.) [1]: 88 ± 11%
O=C(O)COc1ccc(Cl)cc1C#Cc1ccc(CO)cc1F [Example 26, (4-chloro-2-{[2-fluoro-4-(hydroxymethyl)phenyl]ethynyl}phenoxy)acetic acid]	28 nM	679 nM	IC50 [2]: 140 nM
Cc1ccc(S(C)(=O)=O)cc1C#Cc1cc(Cl)ccc1OCC(=O)O [Example 33, (4-chloro-2-{[2-methyl-5-(methylsulfonyl)phenyl]ethynyl}phenoxy)acetic acid]	9 nM	64 nM	
CS(=O)(=O)c1ccc(F)c(C#Cc2cc(Cl)ccc2OCC(=O)O)c1 [Example 48, (4-chloro-2-{[2-fluoro-5-(methylsulfonyl)phenyl]ethynyl}phenoxy)acetic acid]	9 nM	95 nM	IC50 [2]: 15 nM; IC50 [5]: 9 nM; EC50 [5]: 1 nM; Emax [5]: 12%
CCCc1ccc(S(C)(=O)=O)cc1C#Cc1cc(Cl)ccc1OCC(=O)O [Example 49, (4-chloro-2-{[5-(methylsulfonyl)-2-propylphenyl]ethynyl}phenoxy)acetic acid]	11 nM	1190 nM	
CS(=O)(=O)c1ccc(F)c(C#Cc2cc(C#N)ccc2OCC(=O)O)c1 [Example 58, (4-cyano-2-{[2-fluoro-5-(methylsulfonyl)phenyl]ethynyl}phenoxy)acetic acid]	14 nM	95 nM	IC50 [2]: 34 nM; EC50 [5]: 6 nM; Emax [5]: 32%
Cc1ccc(S(=O)(=O)CC(C)C)cc1C#Cc1cc(C#N)ccc1OCC(=O)O [Example 65, (4-cyano-2-{[5-(isobutylsulfonyl)-2-methylphenyl]ethynyl}phenoxy)acetic acid]	9 nM	123 nM	

The remaining compounds from weak to strong by IC50 [3], led by results:

IC50 [3]	IC50 [4]	SMILES	also measured
7 nM	77 nM	Cc1ccc(S(=O)(=O)N(C)C)cc1C#Cc1cc(Cl)ccc1OCC(=O)O [Example 83, [4-chloro-2-({5-[(dimethylamino)sulfonyl]-2-methylphenyl}ethynyl)phenoxy]acetic acid]	
5 nM	77 nM	COCCN(C)S(=O)(=O)c1ccc(C)c(C#Cc2cc(Cl)ccc2OCC(=O)O)c1 [Example 109, {4-chloro-2-[(5-{[(2-methoxyethyl)(methyl)amino]sulfonyl}-2-methylphenyl)ethynyl]phenoxy}acetic acid]	
5 nM	88 nM	COCCNS(=O)(=O)c1ccc(C)c(C#Cc2cc(Cl)ccc2OCC(=O)O)c1 [Example 117, {4-chloro-2-[(5-{[(2-methoxyethyl)amino]sulfonyl}-2-methylphenyl)ethynyl]phenoxy}acetic acid]	
3 nM	100 nM	CCc1ccc(S(C)(=O)=O)cc1C#Cc1cc(Cl)ccc1OCC(=O)O [Example 100, (4-chloro-2-{[2-ethyl-5-(methylsulfonyl)phenyl]ethynyl}phenoxy)acetic acid]	IC50 [5]: 23 nM
3 nM		CCS(=O)(=O)c1ccc(F)c(C#Cc2cc(Cl)ccc2OCC(=O)O)c1 [Example 104, (4-chloro-2-{[5-(ethylsulfonyl)-2-fluorophenyl]ethynyl}phenoxy)acetic acid]	melting point: 165 to 169 °C
2 nM		CC(C)CS(=O)(=O)c1ccc(F)c(C#Cc2cc(Cl)ccc2OCC(=O)O)c1 [Example 105, (4-chloro-2-{[2-fluoro-5-(isobutylsulfonyl)phenyl]ethynyl}phenoxy)acetic acid]	melting point: 141 to 143 °C
2 nM		COCCS(=O)(=O)c1ccc(F)c(C#Cc2cc(Cl)ccc2OCC(=O)O)c1 [Example 106, [4-chloro-2-({2-fluoro-5-[(2-methoxyethyl)sulfonyl]phenyl}ethynyl)phenoxy]acetic acid]	melting point: 125 to 128 °C
